Data on 21 compounds can be found in ChEMBL document CHEMBL3769368, “Semi-synthesis and anti-tumor evaluation of novel 25-hydroxyprotopanaxadiol derivatives as apoptosis inducing agents” (Medchemcomm, 2015).

A short description of assay [1]: Antiproliferative activity against human DU145 cells after 48 hrs by MTT assay. In kind it is functional, cell-based. The note with it: DU-145, 48 h. Background: Formazan colour is commonly taken as a measure of viable cells.
A short description of assay [2]: Antiproliferative activity against human PC3 cells after 48 hrs by MTT assay. The note with it: PC-3, 48 h. It is filed as functional, cell-based.
Assay [3] is described as follows: Antiproliferative activity against human BGC823 cells after 48 hrs by MTT assay. In kind it is functional, cell-based. The settings on record: BGC-823, 48 h.
A short description of assay [4]: Antiproliferative activity against human alpha-2 cells after 48 hrs by MTT assay. In kind it is functional, cell-based.
Assay [5] can be described thus: Cytotoxicity against human IOSE-144 cells after 48 hrs by MTT assay. It is filed as cell-based. The settings on record: IOSE-144, 48 h.
The subject of the next assay is MDA-MB-231. The experiment in a line: Antiproliferative activity against human MDA-MB-231 cells after 48 hrs by MTT assay. In kind it is functional, cell-based. The settings on record: MDA-MB-231, 48 h.

Turning to `CC[C@H](C)[C@H](NC(=O)OC(C)(C)C)C(=O)O[C@H]1CC[C@]2(C)[C@H]3C[C@@H](OC(=O)[C@@H](NC(=O)OC(C)(C)C)[C@@H](C)CC)[C@@H]4[C@@H]([C@](C)(O)CCCC(C)(C)O)CC[C@@]4(C)[C@]3(C)CC[C@H]2C1(C)C`, the IC50 – broadly, the midpoint of a concentration-inhibition curve – in assay [1] is over 100 µM; in assay [2], over 100 µM; in assay [3], over 100 µM; in assay [4], 69 µM; in assay [5], over 100 µM; in the assay on MDA-MB-231 it was over 100 µM.
As to `C[C@@H](O)[C@H](N)C(=O)O[C@H]1CC[C@]2(C)[C@H]3C[C@@H](O)[C@@H]4[C@@H]([C@](C)(O)CCCC(C)(C)O)CC[C@@]4(C)[C@]3(C)CC[C@H]2C1(C)C`, the IC50 in assay [1] was 8.7 µM; in assay [2], 8.9 µM; in assay [3] it was 11 µM; in assay [4], 12 µM; in assay [5], over 100 µM; in the assay on MDA-MB-231, 5.4 µM.
With `O=c1[nH]cc(F)c(=O)[nH]1` [FLUOROURACIL], the IC50 was determined as 38 µM in assay [1]; 46 µM in assay [2]; 37 µM in assay [3]; 33 µM in assay [4]; 29 µM in assay [5]; 20 µM with MDA-MB-231.
As to `CC(C)C[C@H](NC(=O)OC(C)(C)C)C(=O)O[C@H]1CC[C@]2(C)[C@H]3C[C@@H](OC(=O)[C@H](CC(C)C)NC(=O)OC(C)(C)C)[C@@H]4[C@@H]([C@](C)(O)CCCC(C)(C)O)CC[C@@]4(C)[C@]3(C)CC[C@H]2C1(C)C`, the IC50 is over 100 µM in assay [1]; over 100 µM in assay [2]; over 100 µM in assay [3]; 73 µM in assay [4]; over 100 µM in assay [5]; over 100 µM with MDA-MB-231.
Turning to `C[C@H](NC(=O)OC(C)(C)C)C(=O)O[C@H]1CC[C@]2(C)[C@H]3C[C@@H](OC(=O)[C@H](C)NC(=O)OC(C)(C)C)[C@@H]4[C@@H]([C@](C)(O)CCCC(C)(C)O)CC[C@@]4(C)[C@]3(C)CC[C@H]2C1(C)C`, the IC50 is over 100 µM in assay [1]; over 100 µM in assay [2]; 81 µM in assay [3]; 57 µM in assay [4]; over 100 µM in assay [5]; 80 µM with MDA-MB-231.
For the compound `CC(C)(O)CCC[C@@](C)(O)[C@H]1CC[C@]2(C)[C@@H]1[C@H](OC(=O)[C@H](CCC(=O)OCc1ccccc1)NC(=O)OC(C)(C)C)C[C@@H]1[C@@]3(C)CC[C@H](O)C(C)(C)[C@@H]3CC[C@]12C`, the half-inhibitory concentration (IC50) in assay [1] was over 100 µM; in assay [2] it was over 100 µM; in assay [3] it was over 100 µM; in assay [4], 85 µM; in assay [5], over 100 µM; with MDA-MB-231, 79 µM.
With `CC(C)C[C@H](N)C(=O)O[C@H]1CC[C@]2(C)[C@H]3C[C@@H](O)[C@@H]4[C@@H]([C@](C)(O)CCCC(C)(C)O)CC[C@@]4(C)[C@]3(C)CC[C@H]2C1(C)C`, the IC50 is 7.6 µM in assay [1]; 7.9 µM in assay [2]; 8.9 µM in assay [3]; 16 µM in assay [4]; over 100 µM in assay [5]; 4.8 µM in the assay with MDA-MB-231.
`CC[C@H](C)[C@H](N)C(=O)O[C@H]1CC[C@]2(C)[C@H]3C[C@@H](O)[C@@H]4[C@@H]([C@](C)(O)CCCC(C)(C)O)CC[C@@]4(C)[C@]3(C)CC[C@H]2C1(C)C`: the half-maximal inhibitory concentration (IC50) in assay [1] was 14 µM; in assay [2], 8.4 µM; in assay [3], 10 µM; in assay [4] it was 17 µM; in assay [5], over 100 µM; in the assay with MDA-MB-231 it was 6.4 µM.
Turning to `CC(C)(O)CCC[C@@](C)(O)[C@H]1CC[C@]2(C)[C@@H]1[C@H](OC(=O)[C@H](Cc1cnc[nH]1)NC(=O)OC(C)(C)C)C[C@@H]1[C@@]3(C)CC[C@H](O)C(C)(C)[C@@H]3CC[C@]12C`, the IC50 was over 100 µM in assay [1]; 86 µM in assay [2]; 38 µM in assay [3]; 72 µM in assay [4]; over 100 µM in assay [5]; 23 µM in the assay with MDA-MB-231.
As to `CC(C)(O)CCC[C@@](C)(O)[C@H]1CC[C@]2(C)[C@@H]1[C@H](O)C[C@@H]1[C@@]3(C)CC[C@H](O)C(C)(C)[C@@H]3CC[C@]12C`, the IC50 in assay [1] is 53 µM; in assay [2], 57 µM; in assay [3], 46 µM; in assay [4] it was 48 µM; in assay [5], over 100 µM; with MDA-MB-231, 33 µM.
As to `CC(C)(O)CCC[C@@](C)(O)[C@H]1CC[C@]2(C)[C@@H]1[C@H](O)C[C@@H]1[C@@]3(C)CC[C@H](OC(=O)[C@H](Cc4ccc(O)cc4)NC(=O)OC(C)(C)C)C(C)(C)[C@@H]3CC[C@]12C`, the IC50 is 34 µM in assay [1]; 25 µM in assay [2]; 37 µM in assay [3]; 33 µM in assay [4]; over 100 µM in assay [5]; 19 µM in the assay on MDA-MB-231.
As for `C[C@H](N)C(=O)O[C@H]1CC[C@]2(C)[C@H]3C[C@@H](O)[C@@H]4[C@@H]([C@](C)(O)CCCC(C)(C)O)CC[C@@]4(C)[C@]3(C)CC[C@H]2C1(C)C`, the IC50 was 8 µM in assay [1]; 7.6 µM in assay [2]; 7.9 µM in assay [3]; 11 µM in assay [4]; over 100 µM in assay [5]; 4.8 µM in the assay on MDA-MB-231.
With `C[C@H](N)C(=O)O[C@@H]1C[C@@H]2[C@@]3(C)CC[C@H](O)C(C)(C)[C@@H]3CC[C@@]2(C)[C@]2(C)CC[C@H]([C@](C)(O)CCCC(C)(C)O)[C@@H]12`, the IC50 is 14 µM in assay [1]; 8.8 µM in assay [2]; 9 µM in assay [3]; 9.2 µM in assay [4]; over 100 µM in assay [5]; 5.7 µM in the assay on MDA-MB-231.
Take `CC(C)(O)CCC[C@@](C)(O)[C@H]1CC[C@]2(C)[C@@H]1[C@H](OC(=O)[C@H](CCC(=O)OCc1ccccc1)NC(=O)OC(C)(C)C)C[C@@H]1[C@@]3(C)CC[C@H](OC(=O)[C@H](CCC(=O)OCc4ccccc4)NC(=O)OC(C)(C)C)C(C)(C)[C@@H]3CC[C@]12C`: the 50% inhibitory concentration (IC50) in assay [1] is over 100 µM; in assay [2] it was over 100 µM; in assay [3] it was over 100 µM; in assay [4], 61 µM; in assay [5] it was over 100 µM; in the assay with MDA-MB-231, 89 µM.
`CC(C)(O)CCC[C@@](C)(O)[C@H]1CC[C@]2(C)[C@@H]1[C@H](OC(=O)[C@H](Cc1ccc(O)cc1)NC(=O)OC(C)(C)C)C[C@@H]1[C@@]3(C)CC[C@H](O)C(C)(C)[C@@H]3CC[C@]12C`: the IC50 was over 100 µM in assay [1]; 63 µM in assay [2]; 90 µM in assay [3]; 84 µM in assay [4]; over 100 µM in assay [5]; 29 µM in the assay on MDA-MB-231.
With `CC(C)C[C@H](NC(=O)OC(C)(C)C)C(=O)O[C@@H]1C[C@@H]2[C@@]3(C)CC[C@H](O)C(C)(C)[C@@H]3CC[C@@]2(C)[C@]2(C)CC[C@H]([C@](C)(O)CCCC(C)(C)O)[C@@H]12`, the IC50 is over 100 µM in assay [1]; over 100 µM in assay [2]; over 100 µM in assay [3]; 86 µM in assay [4]; over 100 µM in assay [5]; over 100 µM in the assay with MDA-MB-231.
As for `CC(C)(O)CCC[C@@](C)(O)[C@H]1CC[C@]2(C)[C@@H]1[C@H](O)C[C@@H]1[C@@]3(C)CC[C@H](OC(=O)[C@H](Cc4cnc[nH]4)NC(=O)OC(C)(C)C)C(C)(C)[C@@H]3CC[C@]12C`, the IC50 is 21 µM in assay [1]; 28 µM in assay [2]; 27 µM in assay [3]; 20 µM in assay [4]; over 100 µM in assay [5]; 17 µM in the assay with MDA-MB-231.
For the compound `CC[C@H](C)[C@H](NC(=O)OC(C)(C)C)C(=O)O[C@H]1CC[C@]2(C)[C@H]3C[C@@H](O)[C@@H]4[C@@H]([C@](C)(O)CCCC(C)(C)O)CC[C@@]4(C)[C@]3(C)CC[C@H]2C1(C)C`, the IC50 in assay [1] is 58 µM; in assay [2], 24 µM; in assay [3], 22 µM; in assay [4], 36 µM; in assay [5] it was over 100 µM; in the assay on MDA-MB-231, 18 µM.
For `CC(C)(O)CCC[C@@](C)(O)[C@H]1CC[C@]2(C)[C@@H]1[C@H](O)C[C@@H]1[C@@]3(C)CC[C@H](OC(=O)[C@@H](N)Cc4cnc[nH]4)C(C)(C)[C@@H]3CC[C@]12C`, the IC50 in assay [1] was 9.6 µM; in assay [2], 10 µM; in assay [3] it was 12 µM; in assay [4], 11 µM; in assay [5], over 100 µM; with MDA-MB-231, 5.3 µM.
Take `C[C@@H](O)[C@H](NC(=O)OC(C)(C)C)C(=O)O[C@H]1CC[C@]2(C)[C@H]3C[C@@H](O)[C@@H]4[C@@H]([C@](C)(O)CCCC(C)(C)O)CC[C@@]4(C)[C@]3(C)CC[C@H]2C1(C)C`: the IC50 in assay [1] was 25 µM; in assay [2], 28 µM; in assay [3], 22 µM; in assay [4] it was 24 µM; in assay [5] it was over 100 µM; in the assay on MDA-MB-231 it was 14 µM.
`C[C@H](NC(=O)OC(C)(C)C)C(=O)O[C@@H]1C[C@@H]2[C@@]3(C)CC[C@H](O)C(C)(C)[C@@H]3CC[C@@]2(C)[C@]2(C)CC[C@H]([C@](C)(O)CCCC(C)(C)O)[C@@H]12`: the IC50 in assay [1] is over 100 µM; in assay [2] it was 49 µM; in assay [3] it was 40 µM; in assay [4] it was 34 µM; in assay [5], over 100 µM; with MDA-MB-231 it was 46 µM.
